Experimental findings from EP3409293B1, “COMPLEXES COMPRISING PHOSPHOLIPIDS, WATER-SOLUBLE DEXTRIN FIBERS AND ANTIOXIDANT ACTIVE PRINCIPLES OF NATURAL ORIGIN, THEIR PREPARATION AND USE IN ORAL FORMULATIONS” (UNIVERSITA' DEGLI STUDI DI CAGLIARI, priority 2017, dated 2018) are described below.

A short description of data set [1]: Ascorbic acid release from vesicles by dialysis at pH 2 and pH 7. Format: physicochemical. Conditions: 37 °C. The method, then: The velocity (concentration as a function of time) at which the ascorbic acid is released from the vesicles as a function of pH (2 and 7) was measured as well. The dispersions (1 mL) were transferred into dialysis tubes Spectra-Por (300 kDa Float-A-Lyzer G2) immersed in 50 mL of a solution of HCl 0.1 M (pH 2), or in 50 mL of PBS (Phosphate Buffered Saline at pH 7), and maintained at 37 °C under constant stirring for 2 hours at pH 2 and for 6 hours at pH 7. A percentage of the sample was removed at predefined time intervals, and the ascorbic acid concentration was measured with a UV spectrophotometer. […] As aforementioned, release studies were carried out in order to evaluate the ability of the lamellar vesicles to retain and protect the ascorbic acid during the passage through the stomach (pH 2) and/or to retain/protect the same at the neutral pH of the intestine. […] The nutriosomes of the present invention, with or without the additional polymer HPMC, release a quantity of less than 20% after 20 minutes; subsequently, the HPMC-nutriosomes release the lowest percentage, ~40%, after 120 minutes.

In a further data set the test system is Caco2. Kind of data set: Biocompatibility on Caco2 cells, 48 hours, MTT (curcumin, EU-nutriosomes). The data set is classed as cell-based, human. Conditions: Caco2, 48 hours, higher dilutions; % of untreated cells. The method, then:
The biocompatibility of curcumin in dispersion or carried in liposomes or EU-nutriosomes was measured by treating intestinal cells (Caco2) with the vesicular formulations at different dilutions for 48 hours. At the end of this incubation period, cell viability was measured by MTT test, and was expressed as a percentage with respect to the untreated cells (negative control). The results are shown in the annexed Figure 13. At the lowest dilution (10 µg/mL of curcumin), viability is ~75%, regardless of the tested sample; at higher dilutions, the viability of the cells treated with curcumin in dispersion remains around 80%, while that of the cells treated with the nutriosomes is greater (~105%) and equal to that of the reference liposomes, which are generally known to be a non-toxic and biocompatible carrier. Probably all vesicular systems are capable of modulating the curcumin uptake within the cells, thereby reducing any toxic effect thereof. By using a non-toxic dilution (1 µg/mL of curcumin), we studied the ability of the formulations to promote the antioxidizing efficacy of the polyphenol. As shown in the previous example, the cells were stressed with hydrogen peroxide and simultaneously treated with curcumin in dispersion or incorporated in the vesicles (see annexed Figure 14). […]

Another data set has as its system Caco2 cells. Kind of data set: Protection of Caco2 cells against hydrogen peroxide oxidative damage (MTT), curcumin formulations. The data set is classed as cell-based, human. Conditions: Caco2 cells treated with hydrogen peroxide and simultaneously with curcumin formulation, 4 hours; % of untreated cells. The method, then:
A study was carried out to evaluate the in vitro ability of the nutriosomes to improve the protective efficacy of curcumin against the oxidative damage induced in Caco2 cells by hydrogen peroxide (Figure 8). The cells were sown in 96-well plates and incubated at 37 °C in an atmosphere with 5% CO2 for the period necessary for achieving confluence. As a negative control, cells maintained in optimal growth conditions and not treated either with hydrogen peroxide or with curcumin were used; as a positive control, cells maintained in optimal growth conditions and treated with hydrogen peroxide, but not treated with curcumin, were used. The other cells were treated with hydrogen peroxide and, simultaneously, with curcumin in aqueous dispersion or carried in liposomes, nutriosomes and HPMC-nutriosomes. The cells were incubated for 4 hours, washed with PBS, and then cell survival was measured by means of a colorimetric test with tetrazolium salt, 3-(4,5-dimethylthiazol-2-yl)-2,5-diphenyltetrazolium bromide (MTT) (see annexed Figure 8). Cell viability was calculated as a percentage of the viability of the untreated cells (negative control).

Data set [2] can be described thus: Plasmatic concentration of curcumin in rats after gavage. The data set is classed as in vivo, WISTAR male rats. Conditions: 2 mL containing 20 mg/mL of curcumin, during the 8 hours of study. As to the method:
Curcumin in dispersion or carried in liposomes or nutriosomes was administered to rats in vivo, and both the local accumulation and the plasmatic concentration were measured. The experiments were conducted by using WISTAR male rats (8-12 weeks of age and 230-250 g). The animals were treated in accordance with the European Union regulations concerning the use of laboratory animals. The protocols have been approved by the Istitutional Animal Care and Use Committee of the University of Valencia (Spain). Throughout the length of the study, the animals were kept in a thermally conditioned chamber, with a light/dark cycle of 12 hours and free access to water and food. […] In order to measure the quantity of curcumin accumulated in the intestine, the rats were sacrificed 4 hours after administration, and the gastrointestinal apparatus was removed and divided into the different segments. […]
In order to quantify a plasmatic concentration of curcumin when administering the aqueous dispersion, it was necessary to double the concentration; therefore, 2 mL of dispersion were administered, containing 20 mg/mL of curcumin instead of 10 mg/mL as in liposomes and nutriosomes (Figure 10). Notwithstanding this, the measured plasmatic concentration is always very low, i.e. ∼10 ng/mL during the 8 hours of study. […]

`O=C1O[C@H]([C@@H](O)CO)C(O)=C1O` [aqueous solution, ascorbic acid]: the ascorbic acid released entry is reported as “approximately 80%” in data set [1] (pH 2 (HCl 0.1 M), after 20 minutes) and “about 80%” in data set [1] (pH 7 (PBS), after 1 hour).
Consider `COc1cc(C=CC(=O)CC(=O)C=Cc2ccc(O)c(OC)c2)ccc1O` [curcumin in aqueous dispersion, 1,7-Bis(4-hydroxy-3-methoxyphenyl)hepta-1,6-diene-3,5-dione], for which the cell viability result with Caco2 is recorded as “around 80%”; with Caco2 cells, ~ 69%. In addition, in data set [2], the “plasmatic concentration of curcumin” value is approximately 10 ng/mL.
